In US20140179681A1, “METHODS AND COMPOSITIONS OF TARGETED DRUG DEVELOPMENT” (priority 2010, published 2014):
Counter-ions that a name gives are not always drawn. Like-named read-outs stand apart in the source and are kept apart here.

How the values were obtained:
MDBK line = test: MTT Cell Proliferation Assay, MDBK cells; type: cell-based, bovine; details: Bos taurus, MDBK, MDBK cells, second value of cell; read-out: MTT Assay IC50(A431/MDBK): MDBK
Source text: (§1) The following example describes the MTT Cell Proliferation Assay.
(§2) The MTT Cell Proliferation Assay is a colorimetric assay system that measures the reduction of the tetrazolium salt MTT (3-(4,5-dimethylthiazol-2-yl)-2,5-diphenyltetrazolium bromide) into insoluble formazan crystals, produced by the mitochondria of viable cells. […] The color can then be quantified by spectrophotometric means. Among the applications for the method are drug sensitivity, cytotoxicity, response to growth factors, and cell activation. The reduction of tetrazolium salts is now recognized as a safe, accurate alternative to radiometric testing.
(§3) Two replicates on each cell plate and 2 duplicate plates gave 4 individual replicates of each concentration, in each cell line. Concentrations were diluted in 100% DMSO from 25 mM stocks.
(§4) Twelve 96 well plates of each cell line were plated. Plating was done by dislodging cells as in passage protocol, counting on a hemocytometer, re-suspending in standard growth media, and plating using a multichannel pippetor.
(§5) 16 μl of 25 mM stock+34 μl DMSO=8 mM starting concentrations, and serial diluted as with test compounds in same plate. […] Two replicates of each concentrations was run on each cell plate. All compound addition and cell treatments were done using aseptic technique under a laminar flow aseptic hood.
(§6) Control: 0.5% DMSO in treatment media was used as the control.
(§7) MTT dye (Thiazolyl Blue Tetrazolium Bromide, Sigma cat #M5655) stock was prepared in bulk and stored at 4° C. for use: 5 mgs/ml sterile PDS, shielded from light. 4 ul of this stock per 100 uls treatment media per well was used.
(§8) Plates were incubated overnight prior to treatment, with treatment day=Day 0. Compound treatments were prepared prior to washing cells to minimize time cells were dry at room temperature after final aspiration. Compounds were diluted in 100% DMSO in 96 well polypropylene plates: 40 μl 25 mM stock+10 μl DMSO=20 mM; 20 μl of 20 mM+30 μl DMSO=8 mM; 20 μl of 8 mM+30 μl DMSO=3.2 mM; 20 μl of 3.2 mM+30 μl DMSO=1.3 mM; 20 μl of 1.3 mM+30 μl DMSO=0.51 mM.
(§9) 5.0 μl/ml were added to treatment media, in sterile, 2.2 ml deep well plates=0.5% dmso final. Ten μl of each dmso concentration was added to 2.0 ml of treatment media and then mixed using a 1200 μl multichannel pipettor. Cell plates were treated from the deep well plates. Treatment media was standard growth media containing 0.5% FBS and standard additions. This reduced FBS concentration allowed for a slower growth rate in cells.
(§10) Media was aspirated from cell plates, and washed with 200 μl/well sterile PBS. Aspirated PBS wash, and cell plates were treated with 200 μl of compound/treatment media per well, and incubated at 37° C., 5% CO2 for 3 days.
(§11) Prior to harvesting, visual observations were made under an inverted microscope. Plates were harvested by: aspirating the growth media; adding back MTT dye/100 μl treatment media; and incubating plates at 37° C. for 1 hour. MTT dye was aspirated. 100 μl/well dmso was added, and then shaken on a Bellco plate shaker for 5 minutes, at 4.5 setting.
(§12) Plates were read in a Tecan Sunrize UV plate reader, at 560 nm. Settings: Read mode, Outside Normal 2 sec; Shake settle time 3 sec. Data is reported as % inhibition, calculated for individual plates using control values from that plate.

[1] = system: epithelial carcinoma A431 cell line; test: MTT Cell Proliferation Assay, A431 cells; type: cell-based; details: for MTT Assay IC50(A431/MDBK): ratio in parentheses: ratio MDBK IC50 / A431 IC50 (selectivity); for MTT Assay IC50(A431/MDBK): A431: A431 cells; for MTT assay, % at 2.6 microMolar: cell line not stated
Source text: as §1, §2, §3, §4, §5, §6, §7, §8, §9, §10, §11, §12

EGFR = biological target: T1, EGFR (Homo sapiens, UniProt P00533); test: EGFR in-cell Western (ICW) screening protocol (EGFR inhibition assay); type: cell-based; set-up: ICW 1 / ICW 2 / ICW Avg: unit not given here; details: for ICW Avg / ICW 1 / ICW 2: ICW assay; for ICW Avg: average of runs 1 and 2; for ICW 1: run 1; for ICW 2: run 2; for ICW assay: Table 10, % Inhibition of EGF dependent EGFR phosphorylation in A431 cells, compound 125 μM in assay
T1 construct: host or cells: A431
Protocol: The following example describes general EGFR in-cell Western (ICW) screening protocol. Methods are according to Chen et al. (2005) Analytical Biochemistry 338, 136-142 (incorporated herein by reference), except as otherwise noted.
Cell Plates: A431 cells (ATCC # CRL-1555) were grown in Dulbecco's Modified Eagle Medium (DMEM; ATCC #30-2002) supplemented with 10% fetal bovine serum, 105 units/ml pen/strep (Invitrogen #15140155) and 2.1 mM L-glutamine (ATCC #30-2214). Cells were seeded into 96 well tissue culture plates (BD Falcon #353948) at a density of 30,000 cells per well and incubated at 37° C. with 5% CO2 overnight. Two cell plates were prepared for each compound plate.
Serum Starvation: The cells were serum starved prior to compound addition. The media was removed by aspiration and the cells washed with PBS (200 μl/well; Invitrogen #20012-027). The PBS was removed by aspiration and replaced with 200 μl of DMEM (ATCC #30-2002) supplemented with 105 units/ml pen/strep (Invitrogen #15140155) and 2.1 mM 1-glutamine (ATCC #30-2214). The cell plates were incubated at 37° C./5% CO2 for 2 hours.
Compound Plate Preparation: The test compounds were solvated in 100% DMSO (Sigma #472301-2L) at a concentration of 25 mM. Compounds found not to be completely soluble in 100% DMSO at 25 mM were diluted to 10 mM with 100% DMSO and TFA (Fluka #91699) added to a final concentration of 0.2%. 40 μl of test compound was added to the appropriate well of a 96 well plate (Falcon #351190). As controls, 6 μM EGFR kinase inhibitor PD168393 (EMD/Calbiochem #513033) in 100% DMSO and DMSO alone were added to various wells. Prepared compound plates were stored at RT prior to use and at 4° C. long term.
Compound Dilution Plate Preparation: 250 μl of DMEM supplemented with 1 mg/ml BSA (Sigma A3059-10G) was added to the appropriate wells of a 96 well plate to prepare the compound dilution plates. Using a multichannel pipettor, 1.25 μl of compound from the compound plate was transferred into the compound dilution plate.
Compound Addition: The starve media was removed from the cell plates by aspiration. Using a multichannel pipettor, the compound dilution plates were mixed by pipetting up and down three times. 50 μl of mixed, diluted compound was added to each of two rows/columns on each of two cell plates. The cell plates with compound were incubated at 37° C./5% CO2 for 4 hours.
EGF Addition: 20 ng/ml EGF (Upstate #01-107) was prepared in DMEM supplemented with 1 mg/ml BSA. 50 μl of 20 or 0 ng/ml EGF was added to the appropriate wells without the removal of compound. The compound and EGF were mixed by pipetting up and down three times. The plates were incubated at 37° C./5% CO2 for 10 min. In some screening assays the final concentration of EGF used for simulation was 6.6, or 12.5 ng/ml rather than 10 ng/ml.
Fixation and Triton Washing: The EGF+compound was removed by aspiration and 150 μl of freshly prepared Fixation Solution (1×PBS, Sigma P3813-10PK, and 4% Formaldehyde, Pierce #28908) was immediately added. The plates were incubated at RT for 20 min without shaking. The Fixation Solution was removed by aspiration and the plates washed four times with 200 μl each of Triton Wash Solution (1×PBS, Sigma P3813-10PK, and 0.1% Triton X-100, T8787-50ML) for 5 min with gentle shaking.
Blocking and Probing: Following the last Triton Wash, the plates were blocked for 1.5 h at RT with shaking using 150 μl of Odyssey Blocking Buffer (LI-COR #927-40000). The block was removed by aspiration and 50 μl of diluted primary Ab mix was added. The plates were incubated at 4° C. overnight with gentle shaking. The plates were washed five times with 200 μl of PBST (1×PBS, Sigma P3813-10PK, and 0.1% Tween-20, Sigma P9416-50ML) for 5 min each with shaking 50 μl of diluted secondary Ab mix was added and the plates incubated at RT for 1 h with shaking. The plates were washed 5× with 200 μl of PBST for 5 min each with shaking. […]

[2] = Homo sapiens, A-431, A431 cells, first value of cell, read-out: MTT Assay IC50(A431/MDBK): A431
[3] = first value of 'a/b (c)', taken as A431 cells

T1 sequence (P00533 25-1210): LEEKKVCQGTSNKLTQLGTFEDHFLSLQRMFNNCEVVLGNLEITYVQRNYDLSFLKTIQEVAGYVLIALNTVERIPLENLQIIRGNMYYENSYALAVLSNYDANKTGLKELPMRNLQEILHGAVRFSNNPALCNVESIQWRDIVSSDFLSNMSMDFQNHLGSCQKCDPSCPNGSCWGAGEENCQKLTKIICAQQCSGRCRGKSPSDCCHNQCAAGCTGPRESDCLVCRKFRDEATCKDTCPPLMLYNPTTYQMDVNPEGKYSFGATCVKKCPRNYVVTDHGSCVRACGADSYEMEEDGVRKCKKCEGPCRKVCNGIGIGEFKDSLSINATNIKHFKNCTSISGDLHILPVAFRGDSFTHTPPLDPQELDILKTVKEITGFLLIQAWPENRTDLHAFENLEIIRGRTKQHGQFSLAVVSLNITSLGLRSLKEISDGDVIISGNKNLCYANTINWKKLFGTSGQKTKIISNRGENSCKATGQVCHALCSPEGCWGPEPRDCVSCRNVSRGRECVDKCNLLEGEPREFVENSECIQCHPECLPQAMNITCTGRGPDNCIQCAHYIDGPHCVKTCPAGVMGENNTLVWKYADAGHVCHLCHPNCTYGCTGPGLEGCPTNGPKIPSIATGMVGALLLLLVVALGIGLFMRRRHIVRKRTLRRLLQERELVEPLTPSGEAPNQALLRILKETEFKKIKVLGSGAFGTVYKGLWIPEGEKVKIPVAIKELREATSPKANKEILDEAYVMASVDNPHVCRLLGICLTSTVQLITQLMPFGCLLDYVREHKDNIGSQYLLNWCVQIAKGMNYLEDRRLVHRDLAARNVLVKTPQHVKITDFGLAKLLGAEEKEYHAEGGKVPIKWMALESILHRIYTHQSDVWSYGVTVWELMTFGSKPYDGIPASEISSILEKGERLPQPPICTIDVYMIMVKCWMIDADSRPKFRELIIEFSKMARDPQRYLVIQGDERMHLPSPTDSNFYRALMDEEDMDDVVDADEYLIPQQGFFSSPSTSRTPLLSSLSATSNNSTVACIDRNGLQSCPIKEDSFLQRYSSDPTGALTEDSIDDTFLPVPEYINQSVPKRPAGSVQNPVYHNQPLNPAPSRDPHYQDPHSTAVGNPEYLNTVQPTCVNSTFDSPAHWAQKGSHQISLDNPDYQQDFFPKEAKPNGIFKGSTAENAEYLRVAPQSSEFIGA

Row | ICW Avg (EGFR) | ICW 1 (EGFR) | ICW 2 (EGFR) | MTT Assay IC50(A431/MDBK): A431 ([1]; first value of cell) | ICW Screen (ICW Inhibition) (EGFR) | Structure (SMILES) | other results
1 |  |  |  |  | 29.436 | COC(=O)CCC(=O)NC(=S)Nc1ccc(S(=O)(=O)Nc2cc(C)cc(C)c2)cc1 [AD4-12093] | MTT Screen, first value of cell [1, 3]: non- conver- gent
2 |  |  |  |  | 45.64 | CN(c1ccccc1)S(=O)(=O)c1ccc(NC(=S)NC(=O)C2CC2)cc1 [AD4-12164] | IC50 ([1]; Homo sapiens, A-431, first value of 'a/b (c)', taken as A431 cells, read-out: MTT Screen, first value of cell): 50.6 µM; IC50 ([1]; first value of 'a/b (c)', taken as A431 cells, read-out: MTT Screen, first value of cell): 51.4 µM
3 |  |  |  |  | 30.36 | CCCC(=O)NC(=S)Nc1ccc(S(=O)(=O)Nc2cc(C)on2)cc1 [AD4-12267] | MTT Screen, first value of cell [1, 3]: non- conver- gent
4 |  |  |  |  | 35.584 | CN(c1ccccc1)S(=O)(=O)c1ccc(NC(=S)NC(=O)/C=C/c2cccs2)cc1 [AD4-12288] | MTT Screen, first value of cell [1, 3]: non- conver- gent
5 | 72.20 | 70.26 | 74.15 | NOT ACTIVE |  | Cc1cc(C)c2nc(NC3=NC(c4ccccc4)CC(=O)N3)nc(C)c2c1 (centres unmarked) [AD4-12641 + TFA] | 
6 | 73.45 | 82.35 | 64.55 | NOT ACTIVE |  | CCCc1cc(=O)[nH]c(Nc2nc(C)c3ccc(OC)cc3n2)n1 [AD4-12652 + TFA] | 
7 | 62.29 | 53.35 | 71.23 | non-convergent |  | CCOc1cccc2c(C)nc(Nc3nc(-c4ccccc4)cc(=O)[nH]3)nc12 [compound 11492] | 

Further lines, the compound ahead of its results:

Row | Structure (SMILES) | ICW Avg (EGFR) | ICW 1 (EGFR) | ICW 2 (EGFR) | MTT Assay IC50(A431/MDBK): A431 ([1]; first value of cell) | ICW Screen (ICW Inhibition) (EGFR) | other results
8 | Cc1ccc2c(C)nc(Nc3nc(-c4ccccc4)cc(=O)[nH]3)nc2c1 [10381 + TFA] | 82.76 | 87.04 | 78.48 |  |  | IC50 (MDBK line): 3.01 µM; IC50 [1, 2]: 2.1 µM; MTT Assay IC50(A431/MDBK): ratio in parentheses [1]: 1.43
9 | CCc1ccc2nc(Nc3nc(=O)cc(CSc4nc5ccccc5s4)[nH]3)nc(C)c2c1 [11300 + TFA] | 25.61 | 25.11 | 26.12 |  |  | IC50 (MDBK line): 7.95 µM; IC50 [1, 2]: 26.3 µM; MTT Assay IC50(A431/MDBK): ratio in parentheses [1]: 0.30
10 | COc1ccc(C2CC(=O)c3cnc(Nc4nc(-c5ccccc5)c5ccccc5n4)nc3C2)cc1 (centres unmarked) [11663 + TFA] | 26.73 | 31.73 | 21.73 | non-convergent |  | 
11 | Cc1ccc(C2CC(=O)c3cnc(Nc4nc(C)c5cccc(C)c5n4)nc3C2)cc1 (centres unmarked) [11673 + TFA] | 25.35 | 33.30 | 17.39 | non-convergent |  | 
12 | Cc1ccc2c(C)nc(Nc3nc(C)cc(=O)[nH]3)nc2c1 [11725 + TFA] | 28.93 | 26.65 | 31.20 |  |  | IC50 [1, 2]: 13 µM
13 | Cc1cc(C)c2nc(Nc3nc(CSc4ccc(Cl)cc4)cc(=O)[nH]3)nc(C)c2c1 [11726 + TFA] | 30.87 | 35.72 | 26.02 | NOT ACTIVE |  | 
14 | CCOc1cccc2c(C)nc(Nc3nc(C)c(Cc4ccc(C)cc4)c(=O)[nH]3)nc12 [11753 + TFA] | 44.86 | 42.44 | 47.28 | NOT ACTIVE |  | 
15 | CC(C)C(=O)NC(=S)Nc1ccc(S(=O)(=O)N2CCCC2)cc1 [AD4-11970] |  |  |  |  | 43.246 | MTT Screen, first value of cell [1, 3]: non- conver- gent
16 | CC(C)C(=O)NC(=S)Nc1ccc(S(=O)(=O)N(C)c2ccccc2)cc1 [AD4-12042] |  |  |  |  | 34.592 | MTT Screen, first value of cell [1, 3]: non- conver- gent
17 | O=S(=O)(c1ccc(NC(=S)Nc2cccc(C(F)(F)F)c2)cc1)N1CCc2ccccc21 [AD4-12239] |  |  |  |  |  | MTT assay, % at 2.6 microMolar ([1]; Table 10): 58%; ICW assay (EGFR): 67.8291
18 | Cc1ccc(C)c(NC(=S)Nc2ccc(S(=O)(=O)N3c4ccc(F)cc4CCC3C)cc2)c1 (centres unmarked) [AD4-12824] |  |  |  |  |  | MTT assay (first value) ([1]; Table 10, first of x/y(ratio): A431, three day treatment, unit not printed (doses in μM)): Not Active; ICW assay (EGFR): 25.9501
19 | CC1CCc2cc(F)ccc2N1S(=O)(=O)c1ccc(NC(=S)Nc2cc(Cl)cc(Cl)c2)cc1 (centres unmarked) [AD4-12843] |  |  |  |  |  | MTT assay, % at 2.6 microMolar ([1]; Table 10): 74%; ICW assay (EGFR): 43.3347
20 | CC1CCc2cc(F)ccc2N1S(=O)(=O)c1ccc(NC(=S)Nc2cccc(C(F)(F)F)c2)cc1 (centres unmarked) [AD4-12846] |  |  |  |  |  | MTT assay, % at 2.6 microMolar ([1]; Table 10): 71%; ICW assay (EGFR): 71.4924
